Source: patent US9127024B2 (Intrexon Corporation, priority 2013, dated 2015)

Assays:
[1] = biological target: RheoSwitch® (CHO-K1_RS-1 cells, firefly Luciferase reporter) (Choristoneura fumiferana, UniProt O77240); test: in vitro gene switch assay (fLUC Luciferase expression, potency screen); type: cell-based; conditions: read-out: fLUC assay EC50, 24 hours with compound, 25 μM to 2.5 pM, figure in parentheses after a value not defined
Source text: Gene switch assays are disclosed, e.g., in U.S. Pat. Nos. 8,076,517; 7,456,315; 7,304,161; and 6,258,603.
CHO-K1 cells were stably transfected with a plasmid (RS-1, FIG. 1) coding for firefly Luciferase (fLUC) under the control of the RheoSwitch® resulting in the stable cell line CHO-K1_RS-1. A master cell bank was created containing approximately 100 vials at 5×10^6 cells per vial. One vial of CHO-K1_RS-1 was thawed and cultured for two weeks prior to each in vitro potency screening.
Twenty-four (24) hours prior to treatment with the control and test compounds the CHO-K1_RS-1 cells were seeded into white-opaque 384-well cell culture plates at 3,600 cells per well in 30 μl of culture medium. The cells were incubated in a humidified CO2 incubator at 37° C. until compound treatment.
Compounds were prepared at 25 mM in 100% dry DMSO and stored at room temperature in sealed 1 ml tubes prior to subsequent dilution and assay. On the day of cell treatment the tubes containing the control and test compounds were sorted and the ligands transferred to a 96-well polypropylene plate for subsequent dilution. The compounds were diluted in 100% dry DMSO in an 8-point, 10-fold dilution series ranging from 25 mM to 2.5 nM using the Biomek FX automated liquid handler.
The diluted compounds were then transferred to each well of 384-well polypropylene plate in quadruplicate resulting in a single 384-well plate with four replicates of each compound dilution in a different quadrant of the plate. Each well on the 384-well plate received 20 μl of diluted compound. The 384-well plates containing diluted compound and the plates containing cells in culture were loaded onto the Biomek FX and 30 nl of compound was delivered to each well containing cells using a 384-pin V&P Scientific Pin Tool. The resulting 1000-fold dilution (30 nl to 30 μl) generated a final dosing range of 25 μM to 2.5 pM in 0.1% DMSO. Two replicate plates were produced to supply a dedicated plate for the Luciferase expression assay and the APH cell viability assay.
The cells were incubated with the compound for 24 hours in a humidified CO2 incubator at 37° C. Following incubation, the cells were assayed for Luciferase expression (fLUC assay) using the Steady Glo assay from Promega. Cells were equilibrated to room temperature for 15 minutes prior to reagent addition. Thirty micro liters (30 μl) of assay reagent was added to each well of the 384-well plate using the Biomek FX. The reagent was incubated with the cells for 10-120 minutes prior to reading on a Molecular Devices Spectramax L luminometer. The assay reagents were prepared as per the manufacturer's instructions.
The Luciferase expression data was normalized to the baseline signal from cells treated with DMSO alone. The ratio of signal from treated cells to vehicle-treated cells was plotted and non-linear regress was performed using Graph Pad Prism software. EC50, (log)EC50 and Hill slope data was generated. Reporter gene expression, e.g., luciferase expression, serves as a proxy for the expression of a gene of interest. See, e.g., US 2009/0123441 and WO 2011/119773.

[2] = Pharmacokinetic (PK) study, oral gavage, plasma LC-MS/MS; conditions: female Sprague Dawley rats, oral gavage 10 mg/kg, Capryol 90/Triacetin (1:1, v/v); for AUC(0-t): AUC0−t; for Clearance: oral clearance
Experimental: (§1) Female Sprague Dawley rats were fasted for at least 8 hours (overnight) prior to oral dosing of the compound via gavage (10 mg/kg; vehicle=2 mg/mL of Capryol 90/Triacetin (1:1, v/v); 3 animals/compound) and weighed prior to dosing. The correct volume of the appropriate formulation was administered based on that day's (animal) body weight. Body weight, dose volume, and dosing time was recorded for each animal. Animals were not fed for at least 4 hours following activator ligand administration.
(§2) Approximately 200 μL/blood sample was collected from the catheter sample points in EDTA tubes at each time point from each animal. The exact time of blood collection was recorded for each animal Blood samples were held at 4° C. (wet ice) starting immediately after collection and were centrifuged within 15 minutes from the collection for 12 minutes at 2500 rpm. After centrifugation, plasma samples were stored at ^−80° C. until assay. Sample times were as follows: Day 0: 0, 0.5, 1, 2, 3, 4, 6 and 8 hours; Day 1: 24 hours.
(§3) LC-MS/MS Method: Liquid chromatography tandem mass spectrometry with protein precipitation method was used to quantify the compound in rat plasma samples collected from all animals dosed with the ligand. Linearity range was from 1 ng/mL to 1000 ng/mL, with correlation coefficient for calibration curves above 0.99 and analyte quantified within ±15% of target at all calibrator concentrations.
(§4) The plasma ligand concentration was calculated by extrapolating the area under the curve values for the samples from the standard curve generated by the Analyst® software program. The ng/mL values for the plasma samples representing all the animals were used to generate the pharmacokinetic (PK) parameters.

in vivo = conditions: female, Sprague Dawley, rat, po, 10 mg/kg
Experimental: as §1, §2, §3, §4

[3] = female, Sprague Dawley, rat, po, 10 mg/kg
[4] = female, Sprague Dawley, rat, po, 10 mg/kg, Cmax
[5] = female, Sprague Dawley, rat, po, 10 mg/kg, Tmax
[6] = female, Sprague Dawley, rat, po, 10 mg/kg, half-life
[7] = listed as Cpd. No. 13 (Lot # 1), 10 mg/kg
[8] = listed as Cpd. No. 13 (Lot # 2), 10 mg/kg

RheoSwitch® (CHO-K1_RS-1 cells, firefly Luciferase reporter), sequence (O77240 1-513): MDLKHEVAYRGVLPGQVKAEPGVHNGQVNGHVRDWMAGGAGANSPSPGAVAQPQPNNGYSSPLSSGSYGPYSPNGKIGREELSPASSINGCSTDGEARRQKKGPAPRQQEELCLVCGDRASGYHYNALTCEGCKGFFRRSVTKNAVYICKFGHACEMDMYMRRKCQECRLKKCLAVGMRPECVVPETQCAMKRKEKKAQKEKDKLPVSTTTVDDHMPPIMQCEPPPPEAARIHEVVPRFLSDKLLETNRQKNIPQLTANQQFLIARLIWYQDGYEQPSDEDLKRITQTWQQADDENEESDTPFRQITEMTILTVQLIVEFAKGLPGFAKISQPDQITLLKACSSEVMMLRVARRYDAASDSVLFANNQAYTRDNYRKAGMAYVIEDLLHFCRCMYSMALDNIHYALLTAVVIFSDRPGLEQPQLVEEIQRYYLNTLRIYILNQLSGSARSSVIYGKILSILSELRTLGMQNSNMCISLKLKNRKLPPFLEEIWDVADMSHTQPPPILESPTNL

Structure (SMILES) | EC50 [1] [nM] | AUC(0-t) [2, 3] [ng·h/mL] | Cmax [2, 4] [ng/mL] | Tmax [2, 5] [h] | half-life [2, 6] [h] | Clearance [2] [mL/min/kg] | AUC0−t [2, 7] [ng·h/mL] | Cmax [2, 7] [ng/mL] | AUC0−t [2, 8] [ng·h/mL] | Cmax [2, 8] [ng/mL] | Tmax [2, 8] [h] | half-life [2, 8] [h] | Clearance [2, 7] [mL/min/kg] | Clearance [2, 8] [mL/min/kg] | AUC(0-t) (in vivo; AUC0−t) [ng·h/mL] | Cmax (in vivo; Cmax) [ng/mL] | Tmax (in vivo; Tmax) [h]
CCC[C@@H](N(NC(=O)c1ccc(B(O)O)c(F)c1)C(=O)c1cc(C)cc(C)c1)C(C)(C)C [Cpd. No. 22, (R)-(4-(2-(3,5-dimethylbenzoyl)-2-(2,2-dimethylhexan-3-yl)hydrazinecarbonyl)-2-fluorophenyl)boronic acid] | 105 | 25000 | 2730 | 3 | 5.6 | 6.78 | – | – | – | – | – | – | – | – | – | – | –
Cc1cc(C)cc(C(=O)N(NC(=O)c2cccc(B(O)O)c2F)C(C)(C)C)c1 [Cpd. No. 5] | 300 | 18800 | 1890 | 4 | 4 | 8.88 | – | – | – | – | – | – | – | – | – | – | –
CCC[C@@H](N(NC(=O)c1ccc(B(O)O)cc1F)C(=O)c1cc(C)cc(C)c1)C(C)(C)C [Cpd. No. 13, (R)-(4-(2-(3,5-dimethylbenzoyl)-2-(2,2-dimethylhexan-3-yl)hydrazinecarbonyl)-3-fluorophenyl)boronic acid] | 64 | – | – | 2.7 | 3.2 | – | 10579 | 1415 | 60407 | 7060 | 3.3 | 4.3 | 15.6 | 2.82 | – | – | –
Cc1cc(C)cc(C(=O)N(NC(=O)c2ccc3c(c2F)B(O)OC3)C(C)(C)C)c1 [Cpd. No. 58, N′-(tert-butyl)-N′-(3,5-dimethylbenzoyl)-7-fluoro-1-hydroxy-1,3-dihydrobenzo[c][1,2]oxaborole-6-carbohydrazide] | 640 | 30800 | 2650 | 3 | 15.4 | 3.57 | – | – | – | – | – | – | – | – | – | – | –
Cc1cc(C)cc(C(=O)N(NC(=O)c2ccc3c(c2C)OCCO3)C(C)(C)C)c1 [Cpd. C] | – | – | – | – | – | – | – | – | – | – | – | – | – | – | 510 | 112 | 2.5
